Data reported in patent US20200377505A1, “BENZIMIDAZOLES AND AZA-BENZIMIDAZOLES, AND METHODS OF USE THEREOF” (Goldfinch Bio., Inc., priority 2017, published 2020).

Assays:
human TRPC6 = biological target: T1, human TRPC6 (Homo sapiens, UniProt Q9Y210); assay: TRPC6 fluorescence-based assay (Ca2+ flux assay in FLIPR format), cells overexpressing TRPC6; assay type: cell-based; details: 5 μM of test compound, following Carbachol stimulation
T1 construct: expressed in transfected cells; host or cells: HEK 293
T1 sequence (Q9Y210 1-931): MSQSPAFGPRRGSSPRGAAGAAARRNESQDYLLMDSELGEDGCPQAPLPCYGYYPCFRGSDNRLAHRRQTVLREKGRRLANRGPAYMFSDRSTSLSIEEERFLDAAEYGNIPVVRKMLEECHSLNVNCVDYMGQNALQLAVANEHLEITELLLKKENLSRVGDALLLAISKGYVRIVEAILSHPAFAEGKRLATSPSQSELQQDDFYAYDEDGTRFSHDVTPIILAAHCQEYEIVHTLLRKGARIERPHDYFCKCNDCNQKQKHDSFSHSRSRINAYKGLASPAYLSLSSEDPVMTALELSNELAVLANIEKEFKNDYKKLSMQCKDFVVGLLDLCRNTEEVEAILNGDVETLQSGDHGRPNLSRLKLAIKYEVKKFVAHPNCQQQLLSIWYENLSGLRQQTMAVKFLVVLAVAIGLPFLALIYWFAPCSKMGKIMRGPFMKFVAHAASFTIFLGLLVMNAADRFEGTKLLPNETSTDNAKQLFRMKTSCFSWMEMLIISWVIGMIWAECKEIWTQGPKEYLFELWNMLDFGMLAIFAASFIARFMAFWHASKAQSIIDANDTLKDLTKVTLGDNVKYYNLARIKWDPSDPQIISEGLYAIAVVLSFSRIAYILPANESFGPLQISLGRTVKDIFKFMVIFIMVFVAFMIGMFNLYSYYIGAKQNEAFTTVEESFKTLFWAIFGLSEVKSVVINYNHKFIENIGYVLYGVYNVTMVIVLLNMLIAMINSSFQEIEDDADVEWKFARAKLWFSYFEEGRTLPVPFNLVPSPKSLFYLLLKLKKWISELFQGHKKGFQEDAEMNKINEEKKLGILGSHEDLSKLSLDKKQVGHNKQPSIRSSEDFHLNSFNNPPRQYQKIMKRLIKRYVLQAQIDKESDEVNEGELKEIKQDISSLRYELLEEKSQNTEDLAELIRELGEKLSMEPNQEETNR

human TRPC5 = biological target: T2, human TRPC5 (Homo sapiens, UniProt Q9UL62); assay: TRPC5 fluorescence-based assay (Ca2+ flux assay in FLIPR format), cells overexpressing TRPC5; assay type: cell-based; details: 5 μM of test compound, following Carbachol stimulation
T2 construct: expressed in transfected cells; host or cells: HEK 293
T2 sequence (Q9UL62 1-973): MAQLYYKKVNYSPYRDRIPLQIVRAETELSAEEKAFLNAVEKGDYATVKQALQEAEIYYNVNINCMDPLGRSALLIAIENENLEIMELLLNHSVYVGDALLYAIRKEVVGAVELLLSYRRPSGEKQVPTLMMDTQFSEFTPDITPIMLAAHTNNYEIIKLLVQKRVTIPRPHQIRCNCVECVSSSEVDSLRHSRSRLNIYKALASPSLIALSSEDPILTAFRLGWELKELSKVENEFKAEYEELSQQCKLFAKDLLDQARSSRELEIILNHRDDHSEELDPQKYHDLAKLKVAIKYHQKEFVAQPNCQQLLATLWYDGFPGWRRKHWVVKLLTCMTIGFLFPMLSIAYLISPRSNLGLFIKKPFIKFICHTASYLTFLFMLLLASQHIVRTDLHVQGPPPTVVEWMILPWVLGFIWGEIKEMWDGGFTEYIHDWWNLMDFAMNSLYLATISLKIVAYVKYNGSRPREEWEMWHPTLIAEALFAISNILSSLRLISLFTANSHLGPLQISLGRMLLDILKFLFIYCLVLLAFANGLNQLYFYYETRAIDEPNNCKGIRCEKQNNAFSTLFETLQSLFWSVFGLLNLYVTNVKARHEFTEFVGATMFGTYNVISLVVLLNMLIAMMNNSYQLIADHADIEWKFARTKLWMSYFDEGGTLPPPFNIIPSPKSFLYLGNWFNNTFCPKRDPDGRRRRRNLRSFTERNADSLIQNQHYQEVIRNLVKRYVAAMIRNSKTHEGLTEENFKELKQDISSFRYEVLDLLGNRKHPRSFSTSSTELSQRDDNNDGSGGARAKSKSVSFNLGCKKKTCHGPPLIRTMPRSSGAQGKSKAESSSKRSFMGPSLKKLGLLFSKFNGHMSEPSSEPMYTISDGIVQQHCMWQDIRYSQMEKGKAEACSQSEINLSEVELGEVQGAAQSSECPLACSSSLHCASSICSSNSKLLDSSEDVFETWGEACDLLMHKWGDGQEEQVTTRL

| inhibition at 5 µM (human TRPC6) | inhibition at 5 µM (human TRPC5) | Inhibition of TRPC6 (A) (human TRPC6; 5 µM) | Inhibition of TRPC5 (A) (human TRPC5; 5 µM) | Compound |
| --- | --- | --- | --- | --- |
| 22.4% | 48.4% |  |  | CC(C)n1c(NCc2ccccc2)nc2ccccc21 |
| 22.8% | 30.2% |  |  | CCCn1c(COc2ccccc2)nc2ccccc21 |
| 94% | 59% |  |  | CCn1c(Cc2ccc(OC)c(OC)c2)nc2ccccc21 |
| 29.8% | 46% |  |  | CCCn1c(NCc2ccccc2Cl)nc2ccccc21 |
| 27.5% | 45.5% |  |  | Cn1c(NCc2cccc3ccccc23)nc2ccccc21 |
| 19.4% | 41.3% |  |  | COc1ccc(CNc2nc3ccccc3n2C)c(OC)c1 |
| 35.3% | 34.9% |  |  | CCC(CC)c1nc2ccccc2n1Cc1ccccc1 |
| 51% | 51.8% |  |  | Cc1ccc(Cn2c(CN3CCC(CN)C3)nc3ccccc32)cc1 (stereo not drawn) |
| 27.2% | 61.1% |  |  | CC(C)CCn1c(-c2ccc(N)cc2)nc2ccccc21 |
| 50% | 32.2% |  |  | CCSc1nc2ccccc2n1Cc1cccc([N+](=O)[O-])c1 |
| 61.7% | 47.9% |  |  | Fc1cccc(Cl)c1Cn1c(-c2ccco2)nc2ccccc21 |
| 19.3% | 43.9% |  |  | CCOc1ccccc1CNc1nc2ccccc2n1C |
| 2.78% | 27% |  |  | CCC(=O)NCCc1nc2ccccc2n1Cc1ccc(F)cc1 |
| 76.2% | 70% |  |  | Cc1ccccc1OCCn1c(C)nc2ccccc21 |
| 34.8% | 48.4% |  |  | Nc1nc2ccccc2n1Cc1ccccc1F |
| -8.69% | 50% |  |  | CCn1c(NCc2ccccc2O)nc2ccccc21 |
| 27.7% | 39.7% |  |  | Cc1ccc(Cn2c(C(C)(C)C)nc3ccccc32)cc1 |
| 85.5% | 63.5% |  |  | Clc1ccc(Cn2cnc3ccccc32)c(Cl)c1 |
| 77.3% | 71.6% |  |  | CCn1c(NCc2ccc(Br)cc2)nc2ccccc21 |
| 70% | 39.7% |  |  | Cc1nc2ccccc2n1CC(=O)Nc1ccc(Cl)cc1 |
| 80.6% | 50% |  |  | CC(C)c1ccc(CNc2nc3ccccc3n2C)cc1 |
| 40.7% | 45.1% |  |  | CCOc1ccccc1Nc1nc2ccccc2n1C(C)C |
| 53.9% | 57.9% |  |  | COc1ccccc1CNc1nc2ccccc2n1C(C)C |
| 84.1% | 72.7% |  |  | COc1ccccc1NC(=O)Cn1c(C)nc2ccccc21 |
| 37.5% | 72% |  |  | Clc1ccc(Cn2c(NCc3cccs3)nc3ccccc32)cc1 |
| 89.9% | 73.4% |  |  | COc1ccccc1Cn1c(C)nc2ccccc21 |
| 45% | 45% |  |  | C=C(C)Cn1c(-c2ccc(N(C)C)cc2)nc2ccccc21 |
| 31.3% | 53.4% |  |  | COc1ccc(CNc2nc3ccccc3n2Cc2ccc(Cl)cc2)cc1OC |
| 84.3% | 52.4% |  |  | Nc1nc2ccccc2n1Cc1ccc(Cl)c(Cl)c1 |
| 54.1% | 39.9% |  |  | CCn1c(NCc2cccc(Br)c2)nc2ccccc21 |

Second part, the molecule before the results:

| Compound | inhibition at 5 µM (human TRPC6) | inhibition at 5 µM (human TRPC5) | Inhibition of TRPC6 (A) (human TRPC6; 5 µM) | Inhibition of TRPC5 (A) (human TRPC5; 5 µM) |
| --- | --- | --- | --- | --- |
| CCN(CC)c1ccc(CNc2nc3ccccc3n2CCN2CCCCC2)cc1 | 65.7% | 61.2% |  |  |
| Cc1cc(NC(=O)Cn2c(NCc3ccccc3)nc3ccccc32)no1 | 22.8% | 48% |  |  |
| CCCCc1nc2ccccc2n1CC(=O)N1CCCC1c1nc2ccccc2s1 (stereo not drawn) | -0.71% | 46.3% |  |  |
| CCn1c(NC2CCCCC2)nc2ccccc21 | 9.58% | 55.5% |  |  |
| CCCCn1c(NCc2cccs2)nc2ccccc21 [drawing 82] |  |  | 72.31% | 65.84% |
| CCCn1c(NCc2ccc(N(CC)CC)cc2)nc2ccccc21 | 74.7% | 64.9% |  |  |
| c1ccc(Cc2nc3ccccc3n2CCCOc2ccccc2)cc1 | 92.5% | 85.9% |  |  |
| Nc1ccc(-c2nc3ccccc3n2CCCOc2ccccc2)cc1 | 27.3% | 38.6% |  |  |
| COc1ccc(/C=N/c2nc3ccccc3n2Cc2ccc(C)cc2)cc1 | 41.5% | 53.4% |  |  |
| c1csc(CNc2nc3ccccc3n2CCN2CCCCC2)c1 | 16.5% | 64.4% |  |  |
| COc1ccc(/C=N/c2nc3ccccc3n2Cc2ccccc2)cc1OC | 90.5% | 74.3% |  |  |
| Brc1cccc(CNc2nc3ccccc3n2CCN2CCOCC2)c1 | 18.5% | 45.8% |  |  |
| C#CCn1c(Cc2ccc(OC)c(OC)c2)nc2ccccc21 | 91.5% | 66% |  |  |
| CCN(CC)CCn1c(NCc2ccc(OC)cc2OC)nc2ccccc21 | 43.5% | 60.9% |  |  |
| COc1ccc(-n2c(SCC(=O)Nc3cccc(S(=O)(=O)N4CCOCC4)c3)nc3ccccc32)cc1 | 6.92% | 69.6% |  |  |
| CCCn1c(NCc2c[nH]c3ccccc23)nc2ccccc21 | 54.7% | 70.6% |  |  |
| CCCn1c(NCc2nc3ccccc3n2C)nc2ccccc21 | -6.21% | 42.8% |  |  |

| Compound | inhibition at 5 µM (human TRPC6) | inhibition at 5 µM (human TRPC5) | Inhibition of TRPC6 (A) (human TRPC6; 5 µM) | Inhibition of TRPC5 (A) (human TRPC5; 5 µM) |
| --- | --- | --- | --- | --- |
| C=CCn1c(NCc2cccs2)nc2ccccc21 | 14.6% | 50.7% |  |  |
| Brc1cccc(CNc2nc3ccccc3n2CCN2CCCCC2)c1 | 51% | 55% |  |  |
| c1ccc(Cc2nc3ccccc3n2CCOc2ccccc2)cc1 | 17.7% | 36.7% |  |  |
| CC(NCc1nc2ccccc2n1C)C12CC3CC(CC(C3)C1)C2 (stereo not drawn) | 69.7% | 55.2% |  |  |
| CCCCn1c(NCc2ccc(N(CC)CC)cc2)nc2ccccc21 | 30.3% | 28.7% |  |  |
| CCCn1c(NCc2ccco2)nc2ccccc21 | 14.9% | 40.7% |  |  |
| OCCNc1nc2ccccc2n1CCOc1ccccc1 | 8.36% | 40.7% |  |  |
| CCCCn1c(NCc2nc3ccccc3n2C)nc2ccccc21 | 30.4% | 59.5% |  |  |
| COCCn1c(SCC(=O)Nc2cccc3ncccc23)nc2ccccc21 | 83.6% | 59.1% |  |  |
| Cc1nc2ccccc2n1CCNC(=O)c1ccccc1SCc1ccsc1 | 80.8% | 77.7% |  |  |
| COc1ccc(OCc2nc3ccccc3n2CCc2ccccc2)cc1 | 52% | 38.3% |  |  |
| CCCCCn1c(NCc2ccc(N(C)C)cc2)nc2ccccc21 | 81.9% | 62.7% |  |  |
| CCCCn1c(NCc2cccs2)nc2ccccc21 [drawing 80] | 81.3% | 66.1% |  |  |
| CC(C)(C)NC(=O)Cn1c(NCc2ccccc2)nc2ccccc21 | 3.97% | 51% |  |  |
| CCN(CC)CCn1c(NCc2ccc(Cl)cc2)nc2ccccc21 | 57.1% | 62% |  |  |
| CCCCCCn1c(NCc2ccccc2O)nc2ccccc21 | 21.9% | 61.3% |  |  |
